# Measured values from US6809097B1, “Quinoline derivatives inhibiting the effect of growth factors such as VEGF” (Zeneca Limited, priority 1996, dated 2004).
row,Structure (SMILES),melting point [°C]
1,COCCOc1cc2nccc(Nc3cc(O)c(C)cc3F)c2cc1C#N.Cl,300 to 302
2,COc1cc2c(Nc3ccc(C)c(OC(C)=O)c3)ccnc2cc1OCc1ccccc1.Cl,230 to 232
3,COc1cc2nccc(Nc3cc(O)c(Cl)cc3F)c2cc1OC.Cl,312 to 318
4,COc1cc2c(Nc3ccc(Cl)cc3F)ccnc2cc1OCc1ccccc1.Cl,222 to 225
5,COc1cc2c(Nc3ccc(Cl)cc3F)ccnc2cc1OCCN(C)C.Cl,> 250
6,COc1cc2nccc(Nc3cccc(O)c3)c2cc1OC.Cl,280 to 283
7,COc1cc2nccc(Nc3cc(O)c(C)cc3F)c2cc1OC.Cl,> 280
8,COCCOc1cc2nccc(Nc3ccc(C)c(O)c3)c2cc1C#N.Cl,275 to 278
9,COc1cc2nccc(Nc3cc(O)c(C)cc3F)c2cc1C#N.Cl,278 to 281
10,COCCOc1cc2nccc(Nc3ccc(Cl)cc3F)c2cc1C#N.Cl,247 to 250
11,"COc1cc2c(Oc3cc(O)c(C)cc3F)ccnc2cc1OCCCN1CCOCC1 [Example 3, 4-(2-fluoro-5-hydroxy-4-methylphenoxy)-6-methoxy-7-(3-morpholinopropoxy)quinoline]",210 to 217
12,"COc1cc2nccc(Oc3cccc(O)c3)c2cc1OC [Example 26, 6,7-dimethoxy-4-(3-hydroxyphenoxy)quinoline]",140
13,"COCCOc1cc2nccc(Oc3cccc(O)c3)c2cc1C#N [Example 50, 6-cyano-4-(3-hydroxyphenoxy)-7-(2-methoxyethoxy)quinoline]",159 to 163
